The record followed here is ChEMBL document CHEMBL3046846, “Synthesis of N-Alkyl-2, 3-dimethyl-5-[N-(5-halo-2-methylphenyl)carbamoyl]-6-pyrazinecarboxamides and Their Herbicidal Activity” (J Pestic Sci, 1997).

In data set [1] the test system is Xanthium strumarium. The experiment in a line: Herbicidal activity against Xanthium strumarium (cocklebur) 500 g/ha after 2 weeks. It counts as functional.
Data set [2] deals with Veronica persica. The experiment in a line: Herbicidal activity against Veronica persica at 250 g/ha after 2 weeks. It counts as functional.
Data set [3] has as its system Abutilon theophrasti. Nature of the data set: Herbicidal activity against Abutilon theophrasti (velvetleaf) at 500 g/ha after 2 weeks. It counts as functional.
The subject of data set [4] is Abutilon theophrasti. Nature of the data set: Herbicidal activity against Abutilon theophrasti (velvetleaf) at 5000 g/ha after 2 weeks. The data set is classed as functional.
Data set [5] deals with Echinochloa crus-galli. Nature of the data set: Herbicidal activity against Echinochloa crus-galli (barnyard grass) at 5000 g/ha after 2 weeks. It counts as functional.
In data set [6] the test system is Triticum aestivum. The experiment in a line: Herbicidal activity against Triticum aestivum (wheat) at 5000 g/ha after 2 weeks. Conditions: in vivo, 336 h. It counts as ADME, organism-based.
The subject of data set [7] is Avena fatua. The experiment in a line: Herbicidal activity against Avena fatua at 250 g/ha after 2 weeks. It counts as functional.
Data set [8] concerns Veronica persica. Nature of the data set: Herbicidal activity against Veronica persica at 5000 g/ha after 2 weeks. The data set is classed as functional.
In data set [9] the test system is Triticum aestivum. The experiment in a line: Herbicidal activity against Triticum aestivum (wheat) at 500 g/ha after 2 weeks. It counts as ADME, organism-based. Conditions: in vivo, 336 h.
The subject of data set [10] is Glycine max. Nature of the data set: Herbicidal activity against Glycine max (soybean) at 500 g/ha after 2 weeks. It counts as organism-based. Conditions: in vivo, 336 h.
For data set [11], the system named is Avena fatua. The experiment in a line: Herbicidal activity against Avena fatua at 500 g/ha after 2 weeks. It counts as functional.
Data set [12] relates to Echinochloa crus-galli. The experiment in a line: Herbicidal activity against Echinochloa crus-galli (barnyard grass) at 500 g/ha after 2 weeks. It counts as functional.
Data set [13] has as its system Galium spurium. The experiment in a line: Herbicidal activity against Galium spurium var. echinospermon (Wally.) Hayek at 250 g/ha after 2 weeks. The data set is classed as functional.
The test system of data set [14] is Xanthium strumarium. Nature of the data set: Herbicidal activity against Xanthium strumarium (cocklebur) 5000 g/ha after 2 weeks. The data set is classed as functional.
Data set [15] concerns Xanthium strumarium. Nature of the data set: Herbicidal activity against Xanthium strumarium (cocklebur) 250 g/ha after 2 weeks. It counts as functional.
The test system of data set [16] is Avena fatua. Nature of the data set: Herbicidal activity against Avena fatua at 5000 g/ha after 2 weeks. The data set is classed as functional.
For data set [17], the system named is Galium spurium. The experiment in a line: Herbicidal activity against Galium spurium var. echinospermon (Wally.) Hayek at 500 g/ha after 2 weeks. The data set is classed as functional.
The test system of data set [18] is Echinochloa crus-galli. The experiment in a line: Herbicidal activity against Echinochloa crus-galli (barnyard grass) at 250 g/ha after 2 weeks. It counts as functional.
The test system of data set [19] is Glycine max. The experiment in a line: Herbicidal activity against Glycine max (soybean) at 5000 g/ha after 2 weeks. The data set is classed as organism-based. Conditions: in vivo, 336 h.
In data set [20] the test system is Abutilon theophrasti. Nature of the data set: Herbicidal activity against Abutilon theophrasti (velvetleaf) at 250 g/ha after 2 weeks. The data set is classed as functional.
The test system of data set [21] is Glycine max. The experiment in a line: Herbicidal activity against Glycine max (soybean) at 250 g/ha after 2 weeks. The data set is classed as organism-based. Conditions: in vivo, 336 h.
For data set [22], the system named is Galium spurium. The experiment in a line: Herbicidal activity against Galium spurium var. echinospermon (Wally.) Hayek at 5000 g/ha after 2 weeks. It counts as functional.
Data set [23] has as its system Veronica persica. The experiment in a line: Herbicidal activity against Veronica persica at 500 g/ha after 2 weeks. It counts as functional.
Data set [24] concerns Triticum aestivum. The experiment in a line: Herbicidal activity against Triticum aestivum (wheat) at 250 g/ha after 2 weeks. Conditions: in vivo, 336 h. The data set is classed as organism-based.
The subject of data set [25] is Veronica persica. Nature of the data set: Herbicidal activity against Veronica persica at 200 g/ha after 2 weeks. It counts as functional.
Data set [26] relates to Avena fatua. The experiment in a line: Herbicidal activity against Avena fatua at 200 g/ha after 2 weeks. It counts as functional.
Data set [27] concerns Abutilon theophrasti. Nature of the data set: Herbicidal activity against Abutilon theophrasti (velvetleaf) at 200 g/ha after 2 weeks. It counts as functional.
For data set [28], the system named is Triticum aestivum. The experiment in a line: Herbicidal activity against Triticum aestivum (wheat) at 200 g/ha after 2 weeks. It counts as organism-based. Conditions: in vivo, 336 h.
In data set [29] the test system is Galium spurium. The experiment in a line: Herbicidal activity against Galium spurium var. echinospermon (Wally.) Hayek at 200 g/ha after 2 weeks. The data set is classed as functional.
Data set [30] has as its system Glycine max. Nature of the data set: Herbicidal activity against Glycine max (soybean) at 200 g/ha after 2 weeks. The data set is classed as organism-based. Conditions: in vivo, 336 h.
Data set [31] relates to Echinochloa crus-galli. The experiment in a line: Herbicidal activity against Echinochloa crus-galli (barnyard grass) at 200 g/ha after 2 weeks. The data set is classed as functional.
Data set [32] has as its system Xanthium strumarium. The experiment in a line: Herbicidal activity against Xanthium strumarium (cocklebur) 200 g/ha after 2 weeks. It counts as functional.
The subject of data set [33] is Xanthium strumarium. The experiment in a line: Herbicidal activity against Xanthium strumarium (cocklebur) 140 g/ha after 2 weeks. The data set is classed as functional.
Data set [34] concerns Galium spurium. The experiment in a line: Herbicidal activity against Galium spurium var. echinospermon (Wally.) Hayek at 140 g/ha after 2 weeks. The data set is classed as functional.
The subject of data set [35] is Glycine max. Nature of the data set: Herbicidal activity against Glycine max (soybean) at 140 g/ha after 2 weeks. The data set is classed as organism-based. Conditions: in vivo, 336 h.
The test system of data set [36] is Abutilon theophrasti. Nature of the data set: Herbicidal activity against Abutilon theophrasti (velvetleaf) at 140 g/ha after 2 weeks. It counts as functional.
Data set [37] has as its system Triticum aestivum. Nature of the data set: Herbicidal activity against Triticum aestivum (wheat) at 140 g/ha after 2 weeks. It counts as organism-based. Conditions: in vivo, 336 h.
Data set [38] has as its system Avena fatua. The experiment in a line: Herbicidal activity against Avena fatua at 140 g/ha after 2 weeks. The data set is classed as functional.
Data set [39] deals with Veronica persica. The experiment in a line: Herbicidal activity against Veronica persica at 140 g/ha after 2 weeks. The data set is classed as functional.
The test system of data set [40] is Echinochloa crus-galli. The experiment in a line: Herbicidal activity against Echinochloa crus-galli (barnyard grass) at 140 g/ha after 2 weeks. It counts as functional.

Take `CCC(C)NC(=O)c1nc(C)c(C)nc1C(=O)Nc1cc(Cl)ccc1C` (racemic): the Activity with Xanthium strumarium [1] is reported as below 10%; in the data set on Veronica persica [2], 70%; in the data set with Abutilon theophrasti [3], below 10%; in the data set on Abutilon theophrasti [4], 95%; in the data set on Echinochloa crus-galli [5], 95%; with Triticum aestivum [6] it was 70%. In addition, the Activity with Avena fatua [7] was below 10%; in the data set with Veronica persica [8], 95%; in the data set on Triticum aestivum [9], below 10%; in the data set on Glycine max [10], below 10%; in the data set with Avena fatua [11], below 10%; in the data set on Echinochloa crus-galli [12], 10%. Moreover, the Activity in the data set on Galium spurium [13] was below 10%; in the data set on Xanthium strumarium [14], 95%; with Xanthium strumarium [15], below 10%; in the data set with Avena fatua [16], 50%; in the data set on Galium spurium [17] it was below 10%; in the data set on Echinochloa crus-galli [18], below 10%. In addition, the Activity is reported as below 10% in the data set with Glycine max [19]; below 10% in the data set with Abutilon theophrasti [20]; below 10% in the data set with Glycine max [21]; 95% in the data set with Galium spurium [22]; 70% in the data set with Veronica persica [23]; below 10% in the data set with Triticum aestivum [24].

As for `CS(=O)(=O)NC(=O)c1cc(Oc2ccc(C(F)(F)F)cc2Cl)ccc1[N+](=O)[O-]` [FOMESAFEN], the Activity with Veronica persica [25] is on record as 95%; with Avena fatua [26] it was below 10%; in the data set with Abutilon theophrasti [27], 95%; in the data set on Triticum aestivum [28], 30%; in the data set with Galium spurium [29], 70%; with Glycine max [30], below 10%. For the same molecule, the Activity in the data set on Echinochloa crus-galli [31] is reported as 30%; in the data set with Xanthium strumarium [32], 50%.

Regarding `CC(C)C1(C)N=C(c2nc3ccccc3cc2C(=O)O)NC1=O` (stereo not given) [IMAZAQUIN], the Activity in the data set on Xanthium strumarium [33] is recorded as 95%; in the data set with Galium spurium [34] it was 70%; in the data set on Glycine max [35], below 10%; in the data set with Abutilon theophrasti [36], 30%; in the data set on Triticum aestivum [37] it was 70%; with Avena fatua [38], 50%. Also, the values for the Activity in the data set with Veronica persica [39] and in the data set with Echinochloa crus-galli [40] were 50% and 30%, respectively.
